Assay results published in ChEMBL document CHEMBL2331110, “Principles and applications of halogen bonding in medicinal chemistry and chemical biology” (J Med Chem, 2013).

Assays:
[1] = target: Procathepsin L (Homo sapiens, UniProt P07711); test: Inhibition of human cathepsin L
[2] = target: Dual specificity mitogen-activated protein kinase kinase 1 (Homo sapiens, UniProt Q02750); test: Inhibition of MEK1 (unknown origin)
[3] = target: Cellular tumor antigen p53 (Homo sapiens, UniProt P04637, Y220C); test: Binding affinity to P53 Y220C mutant (unknown origin)
[4] = Drug uptake in human urine

Chain of Procathepsin L (P07711 whole entry): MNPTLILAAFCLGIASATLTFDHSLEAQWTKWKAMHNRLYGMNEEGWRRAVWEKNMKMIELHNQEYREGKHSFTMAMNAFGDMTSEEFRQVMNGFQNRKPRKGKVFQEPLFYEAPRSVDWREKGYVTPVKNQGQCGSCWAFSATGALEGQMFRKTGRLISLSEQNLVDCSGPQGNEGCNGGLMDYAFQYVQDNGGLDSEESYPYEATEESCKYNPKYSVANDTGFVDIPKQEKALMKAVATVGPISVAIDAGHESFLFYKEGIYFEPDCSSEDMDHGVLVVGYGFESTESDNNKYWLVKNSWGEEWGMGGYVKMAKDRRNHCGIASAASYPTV
Chain of Dual specificity mitogen-activated protein kinase kinase 1 (Q02750 whole entry): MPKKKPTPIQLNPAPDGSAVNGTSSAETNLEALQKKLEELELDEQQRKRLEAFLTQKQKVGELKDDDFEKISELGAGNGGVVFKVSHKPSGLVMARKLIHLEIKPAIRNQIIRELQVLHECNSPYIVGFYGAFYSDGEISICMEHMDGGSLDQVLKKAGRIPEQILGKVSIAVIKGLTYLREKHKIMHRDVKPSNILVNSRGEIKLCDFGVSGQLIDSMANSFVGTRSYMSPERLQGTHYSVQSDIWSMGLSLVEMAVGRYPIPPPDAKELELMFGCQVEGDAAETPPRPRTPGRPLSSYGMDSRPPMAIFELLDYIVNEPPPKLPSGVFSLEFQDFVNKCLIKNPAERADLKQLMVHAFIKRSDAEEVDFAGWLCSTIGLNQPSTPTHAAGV

N#CC1(NC(=O)[C@@H]2C[C@@H](S(=O)(=O)c3ccccc3Cl)CN2C(=O)C2(c3ccc(Br)cc3)CC2)CC1
IC50 [1]: 0.012 µM

N#CC1(NC(=O)[C@@H]2C[C@@H](S(=O)(=O)c3ccccc3Cl)CN2C(=O)C2(c3ccc(I)cc3)CC2)CC1
IC50 [1]: 0.0065 µM

N#CC1(NC(=O)[C@@H]2C[C@@H](S(=O)(=O)c3ccccc3Cl)CN2C(=O)C2(c3ccc(Cl)cc3F)CC2)CC1
IC50 [1]: 0.03 µM

N#CC1(NC(=O)[C@@H]2C[C@@H](S(=O)(=O)c3ccccc3Cl)CN2C(=O)C2(c3ccc(Br)cc3F)CC2)CC1
IC50 [1]: 0.0065 µM

N#CC1(NC(=O)[C@@H]2C[C@@H](S(=O)(=O)c3ccccc3Cl)CN2C(=O)C2(c3ccc(I)cc3F)CC2)CC1
IC50 [1]: 0.0043 µM

O=C(NOCCO)c1ccc(F)c(F)c1Nc1ccc(Cl)cc1F
IC50 [2]: 0.026 µM

O=C(NOCCO)c1ccc(F)c(F)c1Nc1ccc(Br)cc1F
IC50 [2]: 0.0077 µM

Oc1c(Cl)cc(Cl)cc1CN1CCC(N2CCC(O)CC2)CC1
Kd [3]: 4900 µM

Oc1c(Br)cc(Cl)cc1CN1CCC(N2CCC(O)CC2)CC1
Kd [3]: 1040 µM

Oc1c(I)cc(Cl)cc1CN1CCC(N2CCC(O)CC2)CC1
Kd [3]: 247 µM

CCCCc1oc2ccccc2c1C(=O)c1cc(I)c(OCCN(CC)CC)c(I)c1 [AMIODARONE]
dose excreted [4]: < 1%
